Measurements: patent publication US4994488A, “Novel imidate insecticides” (ICI Americas Inc., priority 1989, dated 1991)

Tests used:
Assay type in all cases: in vivo
[1] = system: Tobacco Budworm [Heliothis virescens (Fabricius)], eggs; test: Tobacco budworm egg test (TBW-E); conditions: percent of test compound in solution; 2-day old eggs
Protocol: (§1) The compounds in Table 1 above were tested for insecticidal activity using the following testing procedures.
(§2) Tobacco Budworm [Heliothis virescens (Fabricius)]
(b). Eggs: Paper towel patches of 2-day old eggs of the tobacco budworm were dipped in acetone solutions of the test compound and placed in petri dishes containing a portion of larval rearing medium. […] Test concentrations ranged from 0.1% downward. The LC-50 value is expressed below in Table 2 under the heading "TBW-E" in terms of percent of the test compound in the solution.

[2] = system: Western Spotted Cucumber Beetle Larvae [Diabrotica undecimpunctata undecimpunctata (Mannherheim)]; test: Western spotted cucumber beetle larvae soil test (Diabrotica); conditions: ppm of test compound in the soil
Protocol: (§3) The compounds in Table 1 above were tested for insecticidal activity using the following testing procedures. LC50 values, based on the results of these tests and calculated according to dosage-mortality curves, are expressed in Table 2.
Western Spotted Cucumber Beetle Larvae[Diabrotica undecimpunctata undecimpunctata (Mannherheim)]
Ten grams of moist potting soil was placed in a plastic cup. The test compound was dissolved in acetone. A 0.05 ml aliquot of the test sample, diluted to the desired concentration, was added to the soil. The cup was capped and the soil was mixed on a vortex mixer for approximately 15 seconds. An indentation was made on the surface of the soil and approximately 50 Diabrotica eggs were added. The eggs were covered with soil and maintained at room temperature (approximately 70° F. or 21° C.). Four days later a section of Romaine lettuce (Latuca sativa) leaf was placed in the treated cups. One week later the cups were examined for live larvae. TEst concentrations ranged from 25 ppm downward. The LC-50 value is expressed below in Table 2 under the heading "Diabrotica" in terms of ppm of the test compound in the soil.

[3] = system: two-spotted mite [Tetranychus urticae (Koch)], eggs; test: Two-spotted mite acaricidal test, eggs (2SM-E); conditions: percent of test compound in solution; nymphs hatching from eggs; 5-7 days
Protocol: as §3
(§4) Acaricidal Evaluation Test
(§5) The two-spotted mite (2SM) [Tetranychus urticae (Koch)]was employed in tests for miticides. The test procedure was as follows:
(§6) Pinto bean plants (Phaseolus sp.), approximately 10 cm tall, were transplanted into sandy loam soil in small cups and thoroughly infested with two-spotted mites of mixed ages and sexes. Twenty-four hours later the infested plants were inverted and dipped for 2-3 seconds in 50--50 acetone-water solutions of the test compound. Treated plants were held in the greenhouse, and 5-7 days later mortality was determined for both adult mites and the nymphs hatching from eggs which were on the plants at the time of treatment. Test concentrations ranged from 0.05% downward. The LC-50 value is expressed below in Table 2 under the headings "2SM-A" (i.e., adults) and "2SM-E" (i.e. eggs) in terms of percent concentration of the test compound in the solution.

[4] = system: two-spotted mite [Tetranychus urticae (Koch)], adults; test: Two-spotted mite acaricidal test, adults (2SM-A); conditions: percent of test compound in solution, 5-7 days
Protocol: as §3, §4, §5, §6

[5] = system: Maize weevil (Sitophilus zeamais [Motschulsky]); test: Maize weevil test on treated corn seeds; conditions: 0.01% test solution, 48 hours, about 25° C.
Protocol: Maize weevil (Sitophilus zeamais [Motschulsky])
Test compounds were diluted in a 50:50 acetone:water solution to a concentration of 0.01%. Four corn seeds [Zea mays, (L.)]which had been immersed in test solutions for 2-3 seconds and allowed to dry were placed in covered containers at a temperature of about 25° C. Mortality was recorded after 48 hours.

[6] = system: Beet Armyworm (Spodoptera exigua); test: Beet armyworm test (BAW); conditions: percent of test compound in solution; second-instar larvae; five days
Protocol: as §3
Beet Armyworm (Spodoptera exigua)
Test compounds were diluted in a 50--50 acetone-water solution. Young leaves of sugar beets (Beta vulgaris) were immersed in the test solutions for 2-3 seconds and placed on a wire screen to dry. The dried leaves were placed in petri dishes containing a moistened filter paper and infested with five second-instar beet armyworm larvae. The dishes were placed in a high humidity chamber. Mortality of the larvae was recorded five days later. Test concentrations ranged from 0.1% downward. The LC-50 values are expressed below in Table 2 under the heading "BAW" in terms of percent of the test compound in solution.

[7] = system: Tobacco Budworm [Heliothis virescens (Fabricius)], larvae; test: Tobacco budworm contact test, larvae (TBW-C); conditions: percent of test compound in solution; second-instar larvae; 5 days
Protocol: as §3, §2
(a) Contact: Test compounds were diluted in a 50--50 acetonewater solution. Cotton (Gossypium sp.) cotyledons were immersed in the test solutions for 2-3 seconds and placed on a wire screen to dry. The dried leaves were placed in petri dishes containing a moistened piece of filter paper and infested with 5 second-instar tobacco budworm larvae. The dishes were placed in a high humidity chamber for 5 days, and percent mortality of the larvae recorded. Test concentrations ranged from 0.1% downward. The LC-50 values are expressed below in Table 2 under the heading "TBW-C" in terms of percent of the test compound in the solution.

[8] = system: Cabbage Looper [Trichoplusia ni (Hubner)]; test: Cabbage looper test (CL); conditions: percent of test compound in solution; second-instar larvae; 3-5 days
Protocol: as §1
Cabbage Looper [Trichoplusia ni (Hubner)]
The test compound was diluted in a 50--50 acetone-water solution. Cotyledons of hyzini squash (Calabacita abobrinha), approximately 1×1.5 inches, were immersed in the test solutions for 2-3 seconds and placed on a wire screen to dry. The dried leaves were placed in petri dished containing a moistened piece of filter paper and infested with 5 secondinstar cabbage looper larvae. The dished were placed in a high humidity chamber. Mortality of the larvae was recorded 3-5 days later. Test concentrations ranged from 0.1% downward. The LC-50 value is expressed below in Table 2 under the heading "CL" in terms of percent of the test compound in solution.

[9] = system: Aster Leafhopper [Macrosteles fascifrens (Stal)]; test: Contact residue assay on the aster leafhopper (LH); conditions: percent of test compound in solution; adults/nymphs; 48 hours
Protocol: as §3
Contact Residue Assay on the Aster Leafhopper [Macrosteles fascifrens (Stal)]
Oat seedlings (Avena sp) were grown in a commercial potting soil in cups. When the plants were approximately 10 cm tall they were thinned to three plants per cup and dipped for 2-3 seconds in 50--50 acetone-water solutions of the test compounds. When the plants had dried, a clear plastic tube was placed over them and the bottom end pressed into the cup. Ten aster leafhopper adults/nymphs were then placed in each tube and the tops of the tubes covered with white organdy cloth. Mortality counts were made after 48 hours. Test concentrations ranged from 0.05% down to that at which 50% mortality occurred. The LC50 values are expressed below in Table 2 under the heading "LH" in terms of the percent of the test compound in the solution.

[10] = system: Housefly [Musca domestica]; test: Housefly insecticidal test (HF); conditions: per 25 female houseflies; mortality at 48 hours
Protocol: as §3
Housefly [Musca domestica]
The test compound was diluted in acetone and aliquots pipetted onto the bottom of aluminum dishes. To ensure even spreading of the chemical on the bottom of the dishes, 1 ml of acetone containing 0.01% peanut oil was also added to each dish. After all solvents had evaporated, the dishes were placed in circular cardboard cages containing 25 female houseflies, 1-2 days old. The cages were covered on the bottom with cellophane and on the top with tulle netting, and each contained a sugar-water saturated cotton plug for maintenance of the flies. Mortality was recorded after 48 hours. Test levels ranged from 100 μg/25 female houseflies downward. The LC-50 value is expressed below in Table 2 under the heading "HF", in terms of μg of the test compound per 25 female flies.

[11] = system: Black Bean Aphid [Aphis fabae (Scop.)]; test: Black bean aphid insecticidal test (BBA), foliar spray; conditions: percent of test compound in sprayed solution; 48 hours
Protocol: as §1

SMILES | LC50 TBW E (eggs) [1] [%] | LC50 Diabrotica [2] | LC50 2-SM E (eggs) [3] [%] | LC50 2-SM A (adults) [4] [%] | mortality at 0.01 % [5] [%] | LC50 BAW [6] [%] | LC50 TBW C (contact) [7] [%] | LC50 CL [8] [%] | LC50 LH [9] [%] | LC50 HF [10] [µg] | LC50 BBA [11] [%]
CC1CC1C(=Nc1ccc(Cl)cc1)OCc1cccc(Oc2ccccc2)c1 (stereo not shown) [Compound 2] | > 0.01 | > 25 ppm (soil) | > 0.05 | > 0.05 |  |  |  |  |  |  | 
Fc1ccc(COC(=Nc2ccc(C(F)(F)F)cc2)C2CC2)cc1Oc1ccccc1 [Compound 15] | 0.017 | > 25 ppm (soil) | < 0.05 | < 0.05 | 50 |  |  |  |  |  | 
Fc1ccc(Oc2cccc(COC(=Nc3ccc(F)c(Cl)c3)C3CC3)c2)cc1 [Compound 11] | 0.05 | > 25 ppm (soil) | > 0.05 | > 0.05 |  | > 0.1 |  |  |  |  | 
CC1(C(=Nc2ccc(Cl)cc2)OCc2cccc(Oc3ccccc3)c2)CC1 [Compound 1] | 0.05 | > 25 ppm (soil) | > 0.05 | > 0.05 |  | 0.025 | 0.008 |  |  |  | 
CC1(C)C(C(=Nc2ccc(F)c(Cl)c2)OCc2cccc(Oc3ccccc3)c2)C1(C)C [Compound 12] | > 0.01 | > 25 ppm (soil) | 0.05 | 0.05 |  |  |  |  |  |  | 
Fc1ccc(COC(=Nc2ccc(C(F)(F)F)cc2)C2CC2)cc1Oc1ccc(Cl)cc1 [Compound 16] | 0.023 | > 25 ppm (soil) | > 0.05 | > 0.05 |  |  |  |  |  |  | 
FC(F)(F)Oc1ccc(N=C(OCc2cccc(Oc3ccccc3)c2)C2CC2)cc1 [Compound 7] | 0.05 | 17 ppm (soil) | 0.01 | 0.01 |  |  | 0.001 |  |  |  | 
Fc1ccc(N=C(OCc2cccc(Oc3ccccc3)c2)C2CC2)cc1 [Compound 5] | 0.08 | > 25 ppm (soil) | 0.05 | 0.05 |  |  | 0.01 |  |  |  | 
CC(C)(C)c1ccc(N=C(OCc2cccc(Oc3ccc(F)cc3)c2)C2CC2)cc1 [Compound 14] | > 0.1 | > 25 ppm (soil) | 0.02 | 0.02 |  |  |  | 0.017 | > 0.05 | > 100 | 
FC(F)(F)c1ccc(N=C(OCc2cccc(Oc3ccccc3)c2)C2CC2)c(Cl)c1 [Compound 8] | > 0.1 | 25 ppm (soil) | > 0.05 | > 0.05 |  |  | 0.1 |  |  |  | 
c1ccc(Oc2cccc(COC(=Nc3ccc4c(c3)OCO4)C3CC3)c2)cc1 [Compound 13] | > 0.01 | > 25 ppm (soil) | > 0.05 | > 0.05 | 50 |  |  | 0.002 |  |  | 
Clc1ccc(N=C(OCc2cccc(Oc3ccccc3)c2)C2CC2)cc1 [Compound 4, N-(4-Chlorophenyl)-O-(3-phenoxybenzyl)cyclopropylcarboximidate] | 0.1 | > 25 ppm (soil) | 0.05 | 0.01 |  |  | 0.006 |  |  |  | 
Clc1cccc(N=C(OCc2cccc(Oc3ccccc3)c2)C2CC2)c1 [Compound 3] | 0.1 | > 25 ppm (soil) | > 0.05 | > 0.05 |  |  |  |  |  |  | 
FC(F)(F)c1cccc(N=C(OCc2cccc(Oc3ccccc3)c2)C2CC2)c1 [Compound 9] | > 0.1 | > 25 ppm (soil) | > 0.05 | > 0.05 |  |  |  |  |  |  | > 0.05
FC(F)(F)c1ccc(N=C(OCc2cccc(Oc3ccccc3)c2)C2CC2)cc1 [Compound 6] | 0.025 | 25 ppm (soil) | > 0.05 | 0.01 |  |  | 0.0015 |  |  |  | 
Fc1ccc(N=C(OCc2cccc(Oc3ccccc3)c2)C2CC2)cc1Cl [Compound 10] | 0.1 | > 25 ppm (soil) | > 0.05 | > 0.05 |  |  |  |  |  |  | 
